Experimental data reported in publication PMC6199744, “Development of Chemical Proteomics for the Folateome and Analysis of the Kinetoplastid Folateome” (ACS Infectious Diseases, 2018).
Read-outs that look alike come from different tables or passages of the source.

System: T. brucei lysate proteins
Type: binding, Trypanosoma brucei

`CCCCCCOc1cccc(Cc2cnc(N)nc2N)c1` [compound 2] was tested, and the fold change (relative to vehicle control = 1, protein TB09.160.3270 ATP-DEPENDENT DEAD BOX HELICASE, PUTATIVE) was 1, the fold change (relative to vehicle control = 1, protein TB09.160.4250 TR[…]) was 0.99 and the fold change (relative to vehicle control = 1, protein TB09.211.3540 GLYCEROL KINASE, GLYCOSOMAL) was 0.98. The fold change (relative to vehicle control = 1, protein TB11.01.1290 14-3-3-I PROTEIN) was 0.88, the fold change (relative to vehicle control = 1, protein TB11.02.0730 METACASPASE) was 1.1 and the fold change (relative to vehicle control = 1, protein TB11.02.4700 14-3-3 PROTEIN) was 1. The fold change (relative to vehicle control = 1, protein TB11.03.0815 DYNEIN LIGHT CHAIN) was 0.94, the fold change (relative to vehicle control = 1, protein TB11.50.0007 DYNEIN LIGHT CHAIN LC8, PUTATIVE) was 0.99 and the fold change (relative to vehicle control = 1, protein TB427TMP.01.1830 HY[…], CONSERVED) was 1. The fold change (relative to vehicle control = 1, protein TB427TMP.01.6880 CYTOSOLIC COAT PROTEIN, PUTATIVE) was 1, the fold change (relative to vehicle control = 1, protein TB427TMP.01.7490 HY[…], CONSERVED) was 0.96 and the fold change (relative to vehicle control = 1, protein TB427TMP.01.7530 HY[…], CONSERVED) was 0.98. It also gave a fold change (relative to vehicle control = 1, protein TB427TMP.02.1460 HY[…], CONSERVED) of 0.95, a fold change (relative to vehicle control = 1, protein TB427TMP.02.2120 NUCLEOPORIN 48) of 0.94 and a fold change (relative to vehicle control = 1, protein TB427TMP.02.2970 KINESIN, PUTATIVE) of 0.89. The fold change (relative to vehicle control = 1, protein TB427TMP.02.3120 MALIC ENZYME, PUTATIVE) was 0.98, the fold change (relative to vehicle control = 1, protein TB427TMP.02.4550 HY[…], CONSERVED) was 0.99 and the fold change (relative to vehicle control = 1, protein TB427TMP.02.5450 GLUCOSE-REGULATED PROTEIN 78, PUTATIVE) was 0.98. The fold change (relative to vehicle control = 1, protein TB427TMP.02.5660 HY[…], CONSERVED) was 0.85, the fold change (relative to vehicle control = 1, protein TB427TMP.03.0090 RIBOKINASE, PUTATIVE) was 0.93 and the fold change (relative to vehicle control = 1, protein TB427TMP.03.0460 HY[…], CONSERVED) was 0.99. The fold change (relative to vehicle control = 1, protein TB427TMP.160.4770 PROTEIN KINASE, PUTATIVE) was 1, the fold change (relative to vehicle control = 1, protein TB427TMP.160.4910 FLAVOPROTEIN MONOOXYGENASE, PUTATIVE) was 0.93 and the fold change (relative to vehicle control = 1, protein TB427TMP.18.0005 HY[…], CONSERVED) was 0.95. The fold change (relative to vehicle control = 1, protein TB427TMP.39.0006 T[…] EIF2B DELTA SUBUNIT, PUTATIVE) was 0.96, the fold change (relative to vehicle control = 1, protein TB427.01.4050 PROTEIN P[…] EF-HAND DOMAINS (PPEF)) was 0.95 and the fold change (relative to vehicle control = 1, protein TB427.03.3160 POLY(A) POLYMERASE) was 0.78. It also gave a fold change (relative to vehicle control = 1, protein TB427.03.3560 HY[…], CONSERVED) of 0.98, a fold change (relative to vehicle control = 1, protein TB427.03.5420 PROTEIN TRANSPORT PROTEIN SEC24) of 0.94 and a fold change (relative to vehicle control = 1, protein TB427.04.1510 PHOSPHOLIPID-TRA[…], PUTATIVE) of 0.93. The fold change (relative to vehicle control = 1, protein TB427.05.1320 HY[…], CONSERVED) was 0.93, the fold change (relative to vehicle control = 1, protein TB427.05.2320 HY[…], CONSERVED) was 0.8 and the fold change (relative to vehicle control = 1, protein TB427.05.300 THYMINE-7-HYDROXYLASE, PUTATIVE) was 0.92. It also gave a fold change (relative to vehicle control = 1, protein TB427.05.3800 GLUTAMINE HYDROLYSING (NOT AMMONIA-DEPENDENT) […] PHOSPHATE SYNTHASE, PUTATIVE) of 0.85, a fold change (relative to vehicle control = 1, protein TB427.06.2550 RNA-BINDING PROTEIN, PUTATIVE) of 0.84 and a fold change (relative to vehicle control = 1, protein TB427.06.3650 ADP-RI[…], PUTATIVE) of 0.97. For the same compound, the fold change (relative to vehicle control = 1, protein TB427.06.3860 HY[…], CONSERVED) was 0.94, the fold change (relative to vehicle control = 1, protein TB427.07.2570 MRNA […], PUTATIVE) was 0.89 and the fold change (relative to vehicle control = 1, protein TB427.08.3150 T-COMPLEX PROTEIN 1, GAMMA SUBUNIT, PUTATIVE) was 0.92. It also gave a fold change (relative to vehicle control = 1, protein TB427.08.3490 HY[…], CONSERVED) of 1.2, a fold change (relative to vehicle control = 1, protein TB427.08.5460 FLAGELLAR CALCIUM-BINDING PROTEIN) of 0.93 and a fold change (relative to vehicle control = 1, protein TB427.08.5760 HY[…], CONSERVED) of 0.96. It also gave a fold change (relative to vehicle control = 1, protein TB427.08.6110 HY[…], CONSERVED) of 0.87, a fold change (relative to vehicle control = 1, protein TB427.10.11930 NAD OR NADP DEPENDENT OXIDOREDUCTASE, PUTATIVE) of 0.92 and a fold change (relative to vehicle control = 1, protein TB427.10.13880 HY[…], CONSERVED) of 0.96. It also gave a fold change (relative to vehicle control = 1, protein TB427.10.14140 PYRUVATE KINASE 1) of 1.1, a fold change (relative to vehicle control = 1, protein TB427.10.14910 SA[…] GLYCOPROTEIN, PUTATIVE) of 0.99 and a fold change (relative to vehicle control = 1, protein TB427.10.15180 […] PROTEIN, PUTATIVE) of 0.88. For the same compound, the fold change (relative to vehicle control = 1, protein TB427.10.2350 PYRUVATE DEH[…] E3 BINDING PROTEIN, PUTATIVE) was 0.77, the fold change (relative to vehicle control = 1, protein TB427.10.4940 NUCLEAR DBF2-RELATED KINASE) was 1 and the fold change (relative to vehicle control = 1, protein TB427.10.7630 HY[…], CONSERVED) was 1. It also gave a fold change (relative to vehicle control = 1, protein TB927.10.12840 MIT[…] PROTEIN, PUTATIVE) of 0.98, a fold change (relative to vehicle control = 1, protein TB927.10.14980 INTR[…] PROTEIN IFT52, PUTATIVE) of 0.98 and a fold change (relative to vehicle control = 1, protein TB927.1.2400 ALPHA TUBULIN) of 1. The fold change (relative to vehicle control = 1, protein TB927.10.4180 TFIIF-[…] PHOSPHATASE, PUTATIVE) was 0.94, the fold change (relative to vehicle control = 1, protein TB927.10.5330 40S RIBOSOMAL PROTEIN S18, PUTATIVE) was 0.96 and the fold change (relative to vehicle control = 1, protein TB927.10.6670 DYNEIN LIGHT CHAIN, PUTATIVE) was 0.94. It also gave a fold change (relative to vehicle control = 1, protein TB927.2.2440 […]-ATPASE SUBUNIT 6) of 1.1, a fold change (relative to vehicle control = 1, protein TB927.3.1120 GTP-BINDING NUCLEAR PROTEIN RTB2, PUTATIVE) of 0.95 and a fold change (relative to vehicle control = 1, protein TB927.3.3490 HIGH MOBILITY GROUP PROTEIN, PUTATIVE) of 0.99. The fold change (relative to vehicle control = 1, protein TB927.4.4650 […] SYNTHASE, PUTATIVE) was 0.56, the fold change (relative to vehicle control = 1, protein TB927.4.5310 SERINE/THREONINE-PROTEIN KINASE A, PUTATIVE) was 0.97 and the fold change (relative to vehicle control = 1, protein TB927.5.1930 HY[…], CONSERVED) was 0.99. For the same compound, the fold change (relative to vehicle control = 1, protein TB927.6.2200 HY[…], CONSERVED) was 0.99, the fold change (relative to vehicle control = 1, protein TB927.6.4140 PAR[…] COMPONENT, PUTATIVE) was 0.94 and the fold change (relative to vehicle control = 1, protein TB927.7.2700 NADH-CYTOCHROME B5 REDUCTASE, PUTATIVE) was 0.78. For the same compound, the fold change (relative to vehicle control = 1, protein TB927.7.4480 ADENOSINE 5'-[…], PUTATIVE) was 0.99, the fold change (relative to vehicle control = 1, protein TB927.8.1510 ATP-DEPENDENT DEAD/H RNA HELICASE, PUTATIVE) was 0.99 and the fold change (vs vehicle control, protein ADENOSINE TRANSPORTER 1 (CZT00028614.1)) was 1.29. The fold change (vs vehicle control, protein TB11.01.4370 HY[…], CONSERVED) was 0.99, the fold change (vs vehicle control, protein TB11.02.1220 […] SUBUNIT 2) was 0.97 and the fold change (vs vehicle control, protein TB427TMP.01.1540 HY[…], CONSERVED) was 1.1. For the same compound, the fold change (vs vehicle control, protein TB427TMP.01.5690 DRBD4) was 0.99, the fold change (vs vehicle control, protein TB427TMP.01.8510 T-COMPLEX PROTEIN 1, ALPHA SUBUNIT, PUTATIVE) was 0.81 and the fold change (vs vehicle control, protein TB427TMP.02.5620 Tb427tmp.02.5620) was 0.97. It also gave a fold change (vs vehicle control, protein TB427TMP.160.4240 […] PROTEIN-LIKE PROTEIN) of 0.98, a fold change (vs vehicle control, protein TB427TMP.211.2730 GIM5A PROTEIN) of 1.45 and a fold change (vs vehicle control, protein TB427.03.4910 SIGNAL PEPTIDE PEPTIDASE, PUTATIVE) of 1. The fold change (vs vehicle control, protein TB427.05.2890 HY[…], CONSERVED) was 0.9, the fold change (vs vehicle control, protein TB427.05.3170 RIBOSE-PHOSPHATE PYROPHOSPHOKINASE, PUTATIVE) was 1.2 and the fold change (vs vehicle control, protein TB427.06.3630 SPHINGOSINE 1-PHOSPHATE LYASE, PUTATIVE) was 0.97. It also gave a fold change (vs vehicle control, protein TB427.06.4770 HY[…], CONSERVED) of 1, a fold change (vs vehicle control, protein TB427.08.550 PEPTIDE […] REDUCTASE, PUTATIVE) of 0.93 and a fold change (vs vehicle control, protein TB427.10.1170 INTR[…] PROTEIN IFT172, PUTATIVE) of 0.83. It also gave a fold change (vs vehicle control, protein TB427.10.13660 HY[…], CONSERVED) of 0.93, a fold change (vs vehicle control, protein TB427.10.14550 ATP-DEPENDENT DEAD/H RNA HELICASE, PUTATIVE) of 1.1 and a fold change (vs vehicle control, protein TB427.10.1510 NOT1) of 0.9. For the same compound, the fold change (vs vehicle control, protein TB427.10.2290 CHAPERONE PROTEIN DNAJ, PUTATIVE) was 0.96, the fold change (vs vehicle control, protein TB427.10.8190 T-COMPLEX PROTEIN 1, THETA SUBUNIT, PUTATIVE) was 0.91 and the fold change (vs vehicle control, protein TB927.10.2100 […] 1-ALPHA) was 0.99. The fold change (vs vehicle control, protein TB927.10.540 ATP-DEPENDENT DEAD/H RNA HELICASE, PUTATIVE) was 0.95, the fold change (vs vehicle control, protein TB927.2.4930 ESTERASE, PUTATIVE) was 0.94 and the fold change (vs vehicle control, protein TB927.5.1630 HY[…], CONSERVED) was 0.99. It also gave a fold change (vs vehicle control, protein TB927.7.2750 PROTEIN KINASE, PUTATIVE) of 0.79 and a fold change (vs vehicle control, protein TB927.8.4330 SMALL GTP-BINDING PROTEIN RAB11) of 1.
